Experimental data reported in ChEMBL document CHEMBL5154761, “Design, synthesis, and evaluation of 9-(pyrimidin-2-yl)-9H-carbazole derivatives disrupting mitochondrial homeostasis in human lung adenocarcinoma” (Eur J Med Chem, 2022).
The source made the active and inactive calls. The calls are words filed in the database; no cut-off is given here.

Assays:
[1] = test system: A549; test: Induction of apoptosis in human A549 cells assessed as necrotic cells at 0.5 uM incubated for 48 hrs by Annexin V-FITC/propidium iodide staining based flow cytometry analysis (reference value: 0.30%); assay type: functional
[2] = test system: A549; test: Induction of cell cycle arrest in human A549 cells assessed as accumulation at Go/G1 phase at 0.5 uM incubated for 48 hrs by PI staining based flow cytometry analysis (reference value: 62.45); assay type: functional
[3] = test system: A549; test: Induction of cell cycle arrest in human A549 cells assessed as increase in cyclin B1 expression upto 1 uM incubated for 48 hrs by Western blot analysis; assay type: functional, cell-based
[4] = Toxicity in BALB/c mouse xenografted with human A549 cells assessed as effect on body weight at 0.4 to 2 mg/kg, ip administered once daily for 14 days and measured every day; assay type: organism-based; settings: in vivo, 336 h, dose 0.4-2 mg/kg, time 14 day
[5] = test system: A549; test: Inhibition of colony formation in human A549 cells at 2 uM incubated for 48 hrs followed by culture medium replacement for every 72 hrs and measured after 14 days by crystal violet staining based analysis relative to control; assay type: functional; parameters: scale not given: the % may be the effect or the level left; settings: time 14 day
[6] = test system: A549; test: Induction of mitochondrial membrane potential loss in human A549 cells assessed as reduction in ATP levels at 1 to 2 uM incubated for 12 hrs in presence of oligomycin/FCCP/antimycin A /rotenone by seahorse XFe24 flux analyzer; assay type: functional, cell-based; settings: dose 1-2 µM
[7] = test system: A549; test: Cytotoxicity against human A549 cells assessed as cell growth inhibition incubated for 48 hrs by MTT assay; assay type: functional, cell-based; settings: A549, 48 h
[8] = test system: A549; test: Inhibition of mitochondrial respiration in human A549 cells assessed as decrease in spare capacity at 2 uM in presence of oligomycin/FCCP/antimycin A /rotenone measured upto 75 mins by seahorse XFe24 flux analyzer; assay type: functional, cell-based
[9] = test system: A549; test: Induction of cell cycle arrest in human A549 cells assessed as accumulation at G2/M phase incubated for 48 hrs by PI staining based flow cytometry analysis; assay type: functional; settings: dose <= 1.0 µM, DDE = dose-dependent effect
[10] = test system: A549; test: Induction of apoptosis in human A549 cells assessed as rate of apoptotic cells at 0.5 to 1 uM incubated for 48 hrs by Annexin V-FITC/propidium iodide staining based flow cytometry analysis (reference value: 2.7 %); assay type: functional; settings: dose 0.5-1 µM
[11] = test system: A549; test: Induction of apoptosis in human A549 cells assessed as increase in cleaved PARP protein expression at 0.5 to 1 uM measured after 48 hrs by Western blot assay; assay type: functional, cell-based; settings: dose 0.5-1 µM
[12] = test system: A549; test: Induction of apoptosis in human A549 cells assessed as increase in caspase 3 protein expression at 0.5 to 1 uM measured after 48 hrs by Western blot assay; assay type: functional, cell-based; settings: dose 0.5-1 µM
[13] = test system: A549; test: Antitumor activity against human A549 cells xenografted in BALB/c nude mouse assessed as reduction in tumor size at 2 mg/kg, ip administered once daily for 14 days and measured every day (reference value: 2100 mm3); assay type: functional; settings: time 14 day
[14] = test system: A549; test: Induction of apoptosis in human A549 cells assessed as early apoptotic cells at 1 uM incubated for 48 hrs by Annexin V-FITC/propidium iodide staining based flow cytometry analysis (reference value: 1.46%); assay type: functional
[15] = test system: A549; test: Induction of cell cycle arrest in human A549 cells assessed as accumulation at S phase at 0.5 uM incubated for 48 hrs by PI staining based flow cytometry analysis (reference value: 12.85%); assay type: functional
[16] = Antiproliferative activity against rat NRK-52E cells assessed as cell growth inhibition incubated for 48 hrs by MTT assay; assay type: toxicity, cell-based
[17] = test system: A549; test: Induction of cell cycle arrest in human A549 cells assessed as accumulation at Go/G1 phase at 1 uM incubated for 48 hrs by PI staining based flow cytometry analysis (reference value: 62.45); assay type: functional
[18] = test system: A549; test: Induction of apoptosis in human A549 cells assessed as viable cells at 0.5 uM incubated for 48 hrs by Annexin V-FITC/propidium iodide staining based flow cytometry analysis (reference value: 97.3%); assay type: functional; settings: read-out: Activity
[19] = test system: A549; test: Induction of cell cycle arrest in human A549 cells assessed as accumulation at G2/M phase at 10 uM incubated for 48 hrs by PI staining based flow cytometry analysis; assay type: functional
[20] = test system: A549; test: Induction of cell cycle arrest in human A549 cells assessed as accumulation at G2/M phase at 1 uM incubated for 48 hrs by PI staining based flow cytometry analysis (reference value: 18.14); assay type: functional
[21] = test system: A549; test: Induction of apoptosis in human A549 cells assessed as increase in cleaved caspase 3 protein expression at 0.5 to 1 uM measured after 48 hrs by Western blot assay; assay type: functional, cell-based; settings: dose 0.5-1 µM
[22] = test system: A549; test: Inhibition of mitochondrial respiration in human A549 cells assessed as decrease in basal respiration at 2 uM in presence of oligomycin/FCCP/antimycin A /rotenone measured upto 75 mins by seahorse XFe24 flux analyzer; assay type: functional, cell-based
[23] = test system: A549; test: Induction of apoptosis in human A549 cells assessed as necrotic cells at 1 uM incubated for 48 hrs by Annexin V-FITC/propidium iodide staining based flow cytometry analysis (reference value: 0.30%); assay type: functional
[24] = test system: A549; test: Induction of apoptosis in human A549 cells assessed as decrease in Bcl-2 protein expression at 0.5 to 1 uM measured after 48 hrs by Western blot assay; assay type: functional, cell-based; settings: dose 0.5-1 µM
[25] = test system: A549; test: Inhibition of colony formation in human A549 cells incubated for 48 hrs followed by culture medium replacement for every 72 hrs and measured after 7 days by crystal violet staining based analysis; assay type: functional, cell-based; settings: dose 1-2 µM, time 7.0 day, DDE = dose-dependent effect
[26] = test system: A549; test: Inhibition of mitochondrial membrane potential in human A549 cells by JC-1 staining based high-content screening method; assay type: functional, cell-based; settings: dose 0.5-2 µM, DDE = dose-dependent effect
[27] = test system: A549; test: Cytotoxicity against human A549 cells assessed as cell growth inhibition at 10 uM incubated for 48 hrs by MTT assay relative to control; assay type: functional
[28] = test system: A549; test: Inhibition of mitochondrial respiration in human A549 cells assessed as decrease in proton leak at 2 uM in presence of oligomycin/FCCP/antimycin A/rotenone measured upto 75 mins by seahorse XFe24 flux analyzer; assay type: functional, cell-based
[29] = test system: A549; test: Induction of apoptosis in human A549 cells assessed as upregulation of caspase 9 protein expression at 0.5 to 1 uM measured after 48 hrs by Western blot assay; assay type: functional, cell-based; settings: dose 0.5-1 µM
[30] = test system: A549; test: Induction of cell cycle arrest in human A549 cells assessed as accumulation at S phase at 1 uM incubated for 48 hrs by PI staining based flow cytometry analysis (reference value: 12.85%); assay type: functional
[31] = test system: NRK-52E; test: Antiproliferative activity against rat NRK-52E cells at upto 10.75 uM incubated for 48 hrs by RTCA analysis; assay type: toxicity, cell-based
[32] = test system: A549; test: Inhibition of mitochondrial respiration in human A549 cells assessed as decrease in maximal respiration at 2 uM in presence of oligomycin/FCCP/antimycin A /rotenone measured upto 75 mins by seahorse XFe24 flux analyzer; assay type: functional, cell-based
[33] = test system: A549; test: Induction of DNA damage in human A549 cells assessed as upregulation of gamma H2AX incubated for 48 hrs by Western blot analysis; assay type: functional, cell-based; settings: dose <= 1.0 µM, DDE = dose-dependent effect
[34] = test system: A549; test: Induction of apoptosis in human A549 cells assessed as increase in PARP protein expression at 0.5 to 1 uM measured after 48 hrs by Western blot assay; assay type: functional, cell-based; settings: dose 0.5-1 µM
[35] = test system: A549; test: Antiproliferative activity against human A549 cells at >1.35 uM incubated for 48 hrs by RTCA analysis; assay type: functional, cell-based

## O=C(c1ccc2c(c1)OCO2)c1cccc2c3ccccc3n(-c3ncccn3)c12
[1]
  Activity: 1.74%
[2]
  Activity: 59.84%
[3]
  Activity: Active
[4]
  Activity: Non-Toxic
[5]
  Activity: 69%
[6]
  Activity: Active
[7]
  IC50: 820 nM
[8]
  inhibition: Active
[9]
  Activity: Dde
[10]
  Activity: 21.1%
[11]
  Activity: Active
[12]
  Activity: Active
[13]
  Activity: 1255 mm3
[14]
  Activity: 12.3%
[15]
  Activity: 13.84%
[16]
  IC50 at 48 h: 1250 nM
[17]
  Activity: 29.76%
[18]
  viability at 0.5 µM: 93.4%
[19]
  Activity: Active
[20]
  Activity: 65.62%
[21]
  Activity: Active
[22]
  inhibition: Active
[23]
  Activity: 1.8%
[24]
  Activity: Active
[25]
  inhibition: Dde
[26]
  inhibition: Dde
[27]
  inhibition at 10 µM: 78.6%
[28]
  inhibition: Active
[29]
  Activity: Active
[30]
  Activity: 14.11%
[31]
  Activity: Non-Toxic
[32]
  inhibition: Active
[33]
  Activity: Dde
[34]
  Activity: Active
[35]
  Activity: Active
